Data reported in patent publication US20230357241A1, “1H-PYRROLO[2,3-C]PYRIDINE COMPOUNDS AND APPLICATION THEREOF” (MEDSHINE DISCOVERY INC., priority 2020, published 2023).
Counter-ions that a name gives are not always drawn.

Key:
[1] = target: CYP1A2 (Homo sapiens (Human), UniProt P05177); experiment: Cytochrome enzyme inhibition study, CYP1A2; assay type: in vitro ADME; conditions: human liver microsomes, mixed probe substrate; read-out: CYP inhibition (IC50, μM) 1A2
Procedure: (§1) A mixed probe substrate of CYP isoenzymes were used to evaluate the inhibitory effect of test compounds on human liver microsomal cytochrome P450 isoenzymes (CYP1A2, CYP2C9, CYP2C19, CYP2D6 and CYP3A4). The test compounds were prepared into 10 mM stock solutions with DMSO. A 178 μL solution of human liver microsome and substrate mixture was added to the non-inhibitor control (NIC) and test compound wells of the reaction plate and the reaction was then placed on ice. 2 μL of blank solvent and test compound working solution were taken from the dilution plate, and added to the reaction plate (at final concentrations of 0.05-50 μM). The reaction plate was prewarmed in a 37±0.2° C. water bath for 10 min. 20 μL of the cofactor solution was taken by a liquid treatment workstation and added into the reaction plate to initiate the reaction. After 10 min, 400 μL of terminating solution was added to the reaction plate to terminate the reaction, and the reaction plate was incubated on ice for 5 min. […] The peak areas of the substrate and the product were detected by liquid chromatography-mass spectrometer (LC/MS/MS). […] The peak area ratio of the metabolite generated by the probe substrate to the internal standard was determined by liquid chromatography-mass spectrometer (LC-MS/MS). […] IC50 values were calculated by a three-parameter or four-parameter sigmoidal logarithmic equation. […]

[2] = Pharmacokinetic study in rats; assay type: in vivo; conditions: male, SD, plasma, rat
Description: (§2) This study was intended to explore the pharmacokinetics of the test compound in the plasma of male C57BL/6J mice and SD rats after intravenous and oral administrations.
(§3) The animals were randomized into two groups of 3 male animals. The compounds were formulated as designated (vehicle: 0.5% MC), i.e., clear solutions for intravenous injection and clear or homogeneous suspensions for oral formulations.
(§4) Animal whole blood samples were collected by jugular vein puncture or from saphenous vein at 5 min, 15 min and 30 min and 1 h, 2 h, 4 h, 6 h and 8 h post-dose. The whole blood samples were added to centrifuge tubes containing anticoagulant and centrifuged at 4° C., 3000 g for 15 min. The plasma supernatant was taken and quickly frozen on dry ice and stored in a freezer at −70±10° C. before LC-MS/MS analysis.
(§5) Plasma drug concentration data for compounds were processed in a non-compartmental model using WinNonlin™ Version 6.3.0 (Pharsight, Mountain View, CA) pharmacokinetic software. Peak concentration (Cmax) and time to peak (Tmax) and time of the last quantifiable concentration were directly obtained from the plasma concentration-time curve.
(§6) The following pharmacokinetic parameters were calculated using the log-linear trapezoidal method: plasma clearance (CL), volume of distribution (Vd), elimination phase half-life (T1/2), mean retention time of the compound from point 0 to the last time point (MRT0-last), mean retention time of the compound from point 0 to infinite (MRT0-inf), area under the time-plasma concentration curve from point 0 to the last time point (AUC0-last), area under the time-plasma concentration curve from point 0 to infinite (AUC0-inf) and bioavailability (F).

[3] = target: CSF-1R (Homo sapiens (Human), UniProt P07333); experiment: In vitro enzymatic inhibitory activity, CSF-1R kinase (33P-ATP filter-binding); assay type: biochemical; conditions: CSF-1R 2.5 nM, 2 h room temperature
Procedure: Basic reaction buffer: 20 mM hydroxyethylpiperazine ethane sulfonic acid (pH 7.5), 10 mM magnesium chloride, 1 mM EGTA, 0.02% Brij35, 0.02 mg/mL bovine serum albumin, 0.1 mM
Na3VO4, 2 mM DTT, 1% DMSO
Necessary cofactors were separately added to the CSF-1R kinase reaction.
The test compounds were prepared into solutions of specified concentrations in 100% DMSO, and the solutions were serially diluted in DMSO using the Integra Viaflo Assist.
1. A fresh medium preparation reaction buffer was prepared;
2. All necessary cofactors were added to the reaction buffer described above;
3. The kinase was added into the medium solution and the mixture was shaked gently;
4. Solutions of the compounds in DMSO were added to the kinase reaction mixture using an acoustic technique (Echo550; in nanoliter range), and the system was incubated at room temperature for 20 min;
5. ^33P-ATP (specific activity: 10 μCi/μL) was added to the reaction mixture to initiate the reaction;
6. The mixture was incubated for 2 h at room temperature;
7. The kinase activity was detected by a filter-binding method;
8. The kinase activity IC50 values and the curves were obtained by comparison with the other kinases and the vehicle (DMSO) group using Prism (GraphPad software).

[4] = target: CYP3A4 (Homo sapiens (Human), UniProt P08684); experiment: Cytochrome enzyme inhibition study, CYP3A4; assay type: in vitro ADME; conditions: human liver microsomes, mixed probe substrate; read-out: CYP inhibition (IC50, μM) 3A4
Procedure: as §1

[5] = target: CYP2C19 (Homo sapiens (Human), UniProt P33261); experiment: Cytochrome enzyme inhibition study, CYP2C19; assay type: in vitro ADME; conditions: human liver microsomes, mixed probe substrate; read-out: CYP inhibition (IC50, μM) 2C19
Procedure: as §1

[6] = system: MDR1-MDCK; experiment: Permeability study (MDR1-MDCK), bi-directional transport; assay type: in vitro ADME; conditions: conclusion in words
[7] = system: Ba/F3-TEL-CSF1R cell in situ graft tumor; experiment: In vivo pharmacodynamic study, Ba/F3-TEL-CSF1R cell in situ graft tumor model (splenomegaly); parameters: species or system nu/nu mice; conditions: for efficacy in TEL-CSF1R-BaF3 cell splenomegaly assay: p.o., QD
Procedure: The in vivo efficacy of compound 1 hydrochloride on Ba/F3-TEL-CSF1R cell in situ graft tumor model was evaluated.
• Cell culture: Ba/F3-TEL-CSF1R cells were cultured in 1640 medium (Biological Industries)+10% fetal bovine serum (BI)+1% dual antibiotic solution (Penicilin Streptomycin Solution, Coring, USA) at 37° C. at 5% CO2 and passaged twice a week. When the saturation reached 80%-90% and met the requirement, the cells were collected, counted and grafted. • Animals: 28 nu/nu mice, female, aged 6-8 weeks, 18-22 g, supplied by Beijing Vital River Laboratory Animal Technology Co., Ltd. • Tumor grafting: 0.2 mL of Ba/F3-TEL-CSF1R cell suspension (2×10^6 cells) was grafted into each mouse through tail vein injection, and the mice were randomized by weight on day 10. • Grouping and dosing regimens
The animals were housed in SPF animal rooms in independent cages with air supply, and each cage contained no more than 5 animals. • ? Temperature: 20-26° C. • ? Humidity: 35%-75% • ? Illumination: 12 h/12 h light/darkness cycle • ? Corn core padding, changed once a week • ? […] Labeling: ear cutting. • Grouping: The subcutaneous tumor-bearing state was observed every day after grafting; the body weight and tumor volume were measured before grouping, and the mice were randomized according to the data. • Observation: The drafting and any modification of the protocol were approved by the Ethics
Committee of Laboratory Animal Welfare of Precision Preceding Do Co., Ltd. (Hefei, China). Animals were monitored daily for health and mortality, including, for example, tumor growth, mobility, diet, weight, eye, hair and other abnormal behaviors, appearance, signs or other abnormalities. The numbers of deaths and adverse events in the groups were recorded based on the number of animals. • Parameters: The body weights were measured and animal survival rate observed daily; at the end of the study (4 h after the last dose), the mice were euthanized and the spleen and liver were collected, weighed and photographed. • The results are shown in FIG. 1.

[8] = Pharmacokinetic study in mice; assay type: in vivo, male C57BL/6J mice; conditions: male, C57BL/6J, plasma, mouse
Description: as §2, §3, §4, §5, §6

[9] = target: CYP2D6 (Homo sapiens (Human), UniProt P10635); experiment: Cytochrome enzyme inhibition study, CYP2D6; assay type: in vitro ADME; conditions: human liver microsomes, mixed probe substrate; read-out: CYP inhibition (IC50, μM) 2D6
Procedure: as §1

[10] = target: CYP2C9 (Homo sapiens (Human), UniProt P11712); experiment: Cytochrome enzyme inhibition study, CYP2C9; assay type: in vitro ADME; conditions: human liver microsomes, mixed probe substrate; read-out: CYP inhibition (IC50, μM) 2C9
Procedure: as §1

Chain of CSF-1R (P07333 20-972): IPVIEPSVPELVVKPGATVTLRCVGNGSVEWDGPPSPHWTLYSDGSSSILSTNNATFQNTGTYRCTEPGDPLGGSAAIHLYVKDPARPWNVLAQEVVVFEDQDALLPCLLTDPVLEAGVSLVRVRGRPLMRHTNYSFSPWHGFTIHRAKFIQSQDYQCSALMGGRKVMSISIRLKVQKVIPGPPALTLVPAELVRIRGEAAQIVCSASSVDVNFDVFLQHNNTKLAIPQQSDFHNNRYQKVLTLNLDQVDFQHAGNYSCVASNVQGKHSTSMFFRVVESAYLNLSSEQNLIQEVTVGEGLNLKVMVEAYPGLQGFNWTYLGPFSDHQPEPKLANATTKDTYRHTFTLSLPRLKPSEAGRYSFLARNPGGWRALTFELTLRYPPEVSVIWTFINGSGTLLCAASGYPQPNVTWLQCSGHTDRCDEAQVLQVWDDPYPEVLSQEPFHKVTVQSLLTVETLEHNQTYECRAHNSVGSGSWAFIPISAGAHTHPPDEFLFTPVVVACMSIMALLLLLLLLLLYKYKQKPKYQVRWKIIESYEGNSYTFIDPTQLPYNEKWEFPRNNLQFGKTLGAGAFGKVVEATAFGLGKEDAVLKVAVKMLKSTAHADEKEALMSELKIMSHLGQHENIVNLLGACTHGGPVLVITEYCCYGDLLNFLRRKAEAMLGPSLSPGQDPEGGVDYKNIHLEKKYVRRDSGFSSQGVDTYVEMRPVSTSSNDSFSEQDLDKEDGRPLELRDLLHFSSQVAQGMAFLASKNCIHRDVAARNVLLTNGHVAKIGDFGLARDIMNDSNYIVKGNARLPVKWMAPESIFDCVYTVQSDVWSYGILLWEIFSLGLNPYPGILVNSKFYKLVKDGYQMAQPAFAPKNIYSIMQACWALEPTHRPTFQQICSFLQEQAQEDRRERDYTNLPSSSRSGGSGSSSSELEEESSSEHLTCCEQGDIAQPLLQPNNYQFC
Chain of CYP2D6 (P10635 whole entry): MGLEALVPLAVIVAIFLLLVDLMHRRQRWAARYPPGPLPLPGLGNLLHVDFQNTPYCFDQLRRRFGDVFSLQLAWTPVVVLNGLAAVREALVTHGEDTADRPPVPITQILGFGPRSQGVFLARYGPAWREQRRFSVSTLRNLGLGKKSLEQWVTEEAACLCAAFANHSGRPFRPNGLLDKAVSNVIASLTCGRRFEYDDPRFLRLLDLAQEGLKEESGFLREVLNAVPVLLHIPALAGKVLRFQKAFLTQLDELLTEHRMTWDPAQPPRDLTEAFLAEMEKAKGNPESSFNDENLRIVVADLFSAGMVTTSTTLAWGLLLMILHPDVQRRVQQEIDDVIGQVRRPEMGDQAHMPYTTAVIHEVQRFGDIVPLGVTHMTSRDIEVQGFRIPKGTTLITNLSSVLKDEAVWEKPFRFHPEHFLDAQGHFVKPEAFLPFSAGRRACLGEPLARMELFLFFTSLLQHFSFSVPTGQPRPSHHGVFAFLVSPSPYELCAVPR
Chain of CYP2C19 (P33261 whole entry): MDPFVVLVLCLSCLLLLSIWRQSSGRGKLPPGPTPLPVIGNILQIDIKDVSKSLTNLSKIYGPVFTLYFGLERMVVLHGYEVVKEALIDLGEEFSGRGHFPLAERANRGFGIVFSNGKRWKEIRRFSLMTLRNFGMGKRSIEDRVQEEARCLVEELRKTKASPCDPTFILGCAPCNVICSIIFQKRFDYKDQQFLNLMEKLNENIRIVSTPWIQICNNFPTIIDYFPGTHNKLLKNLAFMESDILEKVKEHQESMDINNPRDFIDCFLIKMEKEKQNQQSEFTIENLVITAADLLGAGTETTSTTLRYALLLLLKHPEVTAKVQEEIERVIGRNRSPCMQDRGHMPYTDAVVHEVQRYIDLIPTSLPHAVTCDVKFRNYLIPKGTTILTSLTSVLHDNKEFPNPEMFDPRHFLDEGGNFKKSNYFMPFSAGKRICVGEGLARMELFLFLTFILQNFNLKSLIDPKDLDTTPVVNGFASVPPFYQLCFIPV
Chain of CYP1A2 (P05177 whole entry): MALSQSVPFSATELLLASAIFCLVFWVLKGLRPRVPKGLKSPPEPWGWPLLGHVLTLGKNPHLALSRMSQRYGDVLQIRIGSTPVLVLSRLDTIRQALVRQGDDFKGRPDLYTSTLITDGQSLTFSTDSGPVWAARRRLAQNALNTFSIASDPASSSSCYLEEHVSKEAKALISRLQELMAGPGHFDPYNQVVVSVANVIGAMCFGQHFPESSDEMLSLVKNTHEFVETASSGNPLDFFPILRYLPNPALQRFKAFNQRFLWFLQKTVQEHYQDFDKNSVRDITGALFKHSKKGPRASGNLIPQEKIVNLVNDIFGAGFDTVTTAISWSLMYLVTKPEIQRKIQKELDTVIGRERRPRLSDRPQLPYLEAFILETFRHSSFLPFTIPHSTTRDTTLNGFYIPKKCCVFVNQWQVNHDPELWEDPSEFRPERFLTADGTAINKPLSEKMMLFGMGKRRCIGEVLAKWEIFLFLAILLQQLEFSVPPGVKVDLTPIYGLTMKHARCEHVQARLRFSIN
Chain of CYP3A4 (P08684 whole entry): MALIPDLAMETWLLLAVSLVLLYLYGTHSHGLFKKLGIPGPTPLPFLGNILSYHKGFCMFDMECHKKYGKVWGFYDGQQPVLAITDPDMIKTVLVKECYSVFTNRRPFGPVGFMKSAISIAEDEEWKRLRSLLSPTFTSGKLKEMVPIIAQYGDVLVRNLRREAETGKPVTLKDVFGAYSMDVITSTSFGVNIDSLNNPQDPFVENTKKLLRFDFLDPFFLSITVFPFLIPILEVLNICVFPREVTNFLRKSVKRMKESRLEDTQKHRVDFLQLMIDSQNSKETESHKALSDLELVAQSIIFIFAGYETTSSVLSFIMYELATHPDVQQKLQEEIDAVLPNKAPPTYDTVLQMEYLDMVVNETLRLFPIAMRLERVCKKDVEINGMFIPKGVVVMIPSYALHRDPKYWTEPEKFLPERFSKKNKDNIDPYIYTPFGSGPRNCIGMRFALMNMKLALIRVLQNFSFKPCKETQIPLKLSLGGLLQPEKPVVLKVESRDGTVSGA
Chain of CYP2C9 (P11712 whole entry): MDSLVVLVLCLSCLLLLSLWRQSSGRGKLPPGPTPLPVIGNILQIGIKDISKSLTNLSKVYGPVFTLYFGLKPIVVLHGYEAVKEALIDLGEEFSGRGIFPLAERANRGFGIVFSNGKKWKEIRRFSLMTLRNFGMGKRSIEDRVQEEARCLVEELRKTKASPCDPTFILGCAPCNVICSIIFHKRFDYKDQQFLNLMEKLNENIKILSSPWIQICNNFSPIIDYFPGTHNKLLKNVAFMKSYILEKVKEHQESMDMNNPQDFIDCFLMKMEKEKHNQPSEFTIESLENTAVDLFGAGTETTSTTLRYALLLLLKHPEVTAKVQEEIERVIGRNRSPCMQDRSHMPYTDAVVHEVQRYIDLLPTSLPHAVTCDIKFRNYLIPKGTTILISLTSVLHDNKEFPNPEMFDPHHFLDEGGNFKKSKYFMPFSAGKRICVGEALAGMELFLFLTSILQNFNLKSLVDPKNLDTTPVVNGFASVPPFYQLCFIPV

## CNC(=O)c1nccc2c(-c3cnc(Nc4ccc(OC5CC5)nc4)cc3C)c[nH]c12 [Compound 1 hydrochloride]
[1]
  IC50: > 50 µM
[2]; 1 mg/kg, IV, 1 mpk
  AUC(0-t): 66 µM·h
  Vd: 0.2 L/kg
  clearance: 0.61 mL/min/kg
  half-life: 3.4 h
[2]; 3 mg/kg, PO, 3 mpk
  AUC(0-t): 249 µM·h
  Cmax: 27.4 µM
  Tmax: 2 h
  bioavailability: 129%
[3]
  IC50: 1.13 nM
[4]
  IC50: 28 µM
[5]
  IC50: 21 µM
[6]
  permeability compared with PLX-3397: higher than that of PLX-3397
[7]; 1 mpk, comparable to PLX-3397 (10 mg/kg)
  efficacy in TEL-CSF1R-BaF3 cell splenomegaly assay: significant efficacy
[7]; 10 mpk
  efficacy in TEL-CSF1R-BaF3 cell splenomegaly assay: significant advantage
[7]; high, medium and low doses (10, 3, 1 mg/kg p.o. QD)
  dose-dependence in TEL-CSF1R-BaF3 cell splenomegaly assay: clear dose-dependence
[8]; 1 mg/kg, IV, 1 mpk
  AUC(0-t): 168 µM·h
  Vd: 0.15 L/kg
  clearance: 0.2 mL/min/kg
  half-life: 8.62 h
[8]; 10 mg/kg, PO, 10 mpk
  AUC(0-t): 1650 µM·h
  Cmax: 117 µM
  Tmax: 3 h
  bioavailability: 98%
[9]
  IC50: > 50 µM
[10]
  IC50: 11.6 µM

## CNC(=O)c1nccc2c(-c3cnc(Nc4ccc(OC5CC5)nc4)cc3C)cn(C)c12 [Compound 2 hydrochloride]
[3]
  IC50: 26.8 nM

## CNC(=O)c1nccc2c(-c3cnc(Nc4ccc(OC(C)C)cc4)cc3C)c[nH]c12 [Compound 3 hydrochloride]
[3]
  IC50: 34 nM

## CNC(=O)c1nccc2c(-c3cnc(Nc4ccc(C)nc4)cc3C)c[nH]c12 [Compound 6 hydrochloride]
[3]
  IC50: 30 nM

## CNC(=O)c1nccc2c(-c3cnc(Nc4ccc(OC)nc4)cc3C)c[nH]c12 [Compound 7 hydrochloride]
[3]
  IC50: 26 nM

## CNC(=O)c1nccc2c(-c3cnc(Nc4ccc(OC)cc4)cc3C)c[nH]c12 [Compound 8 hydrochloride]
[3]
  IC50: 10 nM

## Cl.FC(F)(F)c1ccc(CNc2ccc(Cc3c[nH]c4ncc(Cl)cc34)cn2)cn1 [PLX-3397, Pexidartinib, reference compound]
[1]
  IC50: 24 µM
[2]; 1 mg/kg, IV, 1 mpk
  AUC(0-t): 8.49 µM·h
  Vd: 0.613 L/kg
  clearance: 4.64 mL/min/kg
  half-life: 1.27 h
[2]; 10 mg/kg, PO, 10 mpk
  AUC(0-t): 70.2 µM·h
  Cmax: 10.7 µM
  Tmax: 1.5 h
  bioavailability: 81%
[4]
  IC50: > 35.6 µM
[5]
  IC50: 8.32 µM
[8]; 1 mg/kg, IV, 1 mpk
  AUC(0-t): 29 µM·h
  Vd: 0.265 L/kg
  clearance: 0.927 mL/min/kg
  half-life: 3.33 h
[8]; 10 mg/kg, PO, 10 mpk
  AUC(0-t): 131 µM·h
  Cmax: 17.2 µM
  Tmax: 4 h
  bioavailability: 74.1%
[9]
  IC50: 8.77 µM
[10]
  IC50: 3.81 µM
